According to ChEMBL document CHEMBL4118139, “Novel naphthyloxy derivatives - Potent histamine H3 receptor ligands. Synthesis and pharmacological evaluation” (Bioorg Med Chem, 2018):
Activity calls are given as the source filed them. No cut-off for these calls is given here.

Legend:
Histamine H3 receptor [1] = target: T1, Histamine H3 receptor (Homo sapiens, UniProt Q9Y5N1); assay: Displacement of [3H]N-alpha-methylhistamine from full length human H3 receptor expressed in HEK293 cell membranes after 90 mins
Mus musculus [2] = assay: Analgesic activity in ip dosed albino Swiss CD1 mouse assessed reduction in formalin-induced inflammatory pain by measuring reduction in time spent in licking pretreated prior to formalin injection measured at 15 to 30 mins post formalin injection; format: functional
Mus musculus [3] = assay: Effect on spontaneous locomotor activity in ip dosed albino Swiss CD1 mouse assessed as inhibition of number of light beam crossings treated for 30 mins measured for next 30 mins in 10 min intervals; format: organism-based; details: in vivo, 0.5 h
Mus musculus [4] = assay: Cognition enhancing effect in albino Swiss CD-1 mouse assessed as reversal of scopolamine-induced amnesia by measuring latency time at 30 mg/kg, ip treated 30 mins prior to acquisition trial followed by scopolamine challenge immediately after acquisition trial by passive avoidance test (reference value: 39.31 +/- 4.01 secs); format: functional
Mus musculus [5] = assay: Cognition enhancing effect in albino Swiss CD-1 mouse assessed as reversal of scopolamine-induced amnesia by measuring latency time at 15 mg/kg, ip treated 30 mins prior to acquisition trial followed by scopolamine challenge immediately after acquisition trial by passive avoidance test (reference value: 39.31 +/- 4.01 secs); format: functional
Mus musculus [6] = assay: Analgesic activity in ip dosed albino Swiss CD1 mouse assessed reduction in formalin-induced inflammatory pain by measuring reduction in time spent in licking treated prior to formalin injection measured at 0 to 5 mins post formalin injection; format: functional
Histamine H3 receptor [7] = target: T1, Histamine H3 receptor; assay: Displacement of […] from full length recombinant human H3 receptor expressed in HEK293 cell membranes after 90 mins by scintillation counting method
HepG2 = assay: Cytotoxicity against human HepG2 cells assessed as reduction in cell viability after 72 hrs by MTS assay; format: cell-based; details: HepG2, 72 h
IMR-32 = assay: Cytotoxicity against human IMR32 cells assessed as reduction in cell viability after 72 hrs by MTS assay; format: cell-based; details: IMR-32, 72 h
HEK293 = assay: Cytotoxicity against HEK293 cells assessed as reduction in cell viability after 72 hrs by MTS assay; format: cell-based; details: Homo sapiens, HEK293, 72 h
Histamine H3 receptor [8] = target: Histamine H3 receptor (Rattus norvegicus, UniProt Q9QYN8); assay: Displacement of [3H]-(R)alpha-MeHA from rat brain H3 receptor
Rattus norvegicus [9] = assay: In vivo antagonist activity at H3 receptor in RAMH-induced dipsogenic Wistar (Krf:(WI) WU) rat model assessed as inhibition of RAMH-water intake at 1.25 mg/kg, ip administered 30 mins prior to RAMH induction; format: functional
[10] = Neurotoxicity in ip dosed albino CF-1 mouse after 0.25 hrs by rotarod test; format: toxicity, organism-based; details: in vivo
[11] = Therapeutic index, ratio of ip dosed albino CF-1 mouse TD50 to ip dosed albino CF-1 mouse ED50 for MES assay; format: toxicity, organism-based; details: in vivo, read-out: TI
Mus musculus [12] = assay: Anticonvulsant activity in ip dosed albino CF-1 mouse assessed as protection against subcutaneous pentylenetetrazole-induced seizures measured after 1 hr; format: functional; details: CF-1, 1 h
Mus musculus [13] = assay: Anticonvulsant activity in ip dosed albino CF-1 mouse assessed as protection against maximal electroshock-induced seizures after 1 hr; format: functional; details: CF-1, ip
Mus musculus [14] = assay: Anticonvulsant activity in ip dosed albino CF-1 mouse assessed as protection against 44 mA current-induced seizure after 0.25 hrs by 6 Hz psychomotor test; format: functional; details: CF-1, ip
Mus musculus [15] = assay: Anticonvulsant activity in ip dosed albino CF-1 mouse assessed as protection against 32 mA current-induced seizure after 1 hr by 6 Hz psychomotor test; format: functional; details: CF-1, ip
CYP3A4 = CYP3A4 (Homo sapiens, UniProt P08684); assay: Inhibition of CYP3A4 (unknown origin) at 25 uM by CYP3A4 P450-Glo assay; format: ADME
Salmonella typhimurium [16] = assay: Mutagenicity in Salmonella typhimurium TA100 assessed as increase in number of revertants at 1 uM after 90 mins by Ames test; format: toxicity, organism-based; details: salmonella enterica subsp. enterica serovar typhimurium, 1.5 h
Salmonella typhimurium [17] = assay: Mutagenicity in Salmonella typhimurium TA100 assessed as increase in number of revertants at 10 uM after 90 mins by Ames test; format: toxicity, organism-based; details: salmonella enterica subsp. enterica serovar typhimurium, 1.5 h
[18] = target: Muscarinic acetylcholine receptor M3 (Cavia porcellus) (UniProt Q8VH26); assay: Agonist activity at muscarinic M3 receptor in guinea-pig ileum assessed as induction of contractions at 1 to 3 uM after 15 mins; format: functional
[19] = target: Histamine H1 receptor (Cavia porcellus) (UniProt P31389); assay: Antagonist activity at histamine H1 receptor in guinea-pig ileum assessed as inhibition of histamine-induced contractions after 15 mins; format: functional
[20] = target: Histamine H4 receptor (Homo sapiens) (UniProt Q9H3N8); assay: Displacement of [3H]-Histamine from human histamine H4 receptor expressed in insect sf9 cell membranes at 1 uM relative to JNJ-7777120
[21] = target: 5-hydroxytryptamine receptor 7 (Homo sapiens, UniProt P34969); assay: Displacement of [3H]-5-carboxyamidotryptamine from human 5-HT7 receptor expressed in HEK293 cell membranes after 1 hr
[22] = target: D(1B) dopamine receptor (Homo sapiens) (UniProt P21918); assay: Displacement of [3H]-SCH23390 from human dopamine D5 receptor expressed in HEK293 cell membranes at 1 uM relative to fluphenazin
Rattus norvegicus [23] = assay: In vivo antagonist activity at H3 receptor in RAMH-induced dipsogenic ip dosed Wistar (Krf:(WI) WU) rat model assessed as inhibition of RAMH-water intake administered 30 mins prior to RAMH induction; format: functional
[24] = target: Histamine H1 receptor (Homo sapiens) (UniProt P35367); assay: Displacement of [3H]-pyrilamine from human histamine H1 receptor expressed in CHO cell membranes at 1 uM relative to chlorpheniramine
[25] = target: D(2) dopamine receptor (Homo sapiens) (UniProt P14416); assay: Displacement of [3H]-spiperone from human dopamine D2 receptor expressed in CHO cell membranes at 1 uM relative to haloperidol
Histamine H1 receptor = Histamine H1 receptor (Cavia porcellus, UniProt P31389); assay: Antagonist potency at histamine H1 receptor in guinea-pig ileum assessed as inhibition of histamine-induced contractions at 0.3 to 3 uM after 15 mins; format: functional; details: read-out: pA2 (converted)
Mus musculus [26] = assay: Cognition enhancing effect in albino Swiss CD-1 mouse assessed as reversal of scopolamine-induced amnesia at 20 to 30 mg/kg, ip treated 30 mins prior to acquisition trial followed by scopolamine challenge immediately after acquisition trial by passive avoidance test (reference value: 39.31 +/- 4.01 secs); format: functional, organism-based
[27] = target: 5-hydroxytryptamine receptor 2A (Homo sapiens, UniProt P28223); assay: Displacement of [3H]-ketanserin from human 5-HT2A receptor expressed in CHO cell membranes after 1 hr
[28] = target: Histamine H1 receptor (Cavia porcellus) (UniProt P31389); assay: Agonist activity at histamine H1 receptor in guinea-pig ileum assessed as induction of contractions at 1 to 3 uM after 15 mins; format: functional
[29] = target: 5-hydroxytryptamine receptor 6 (Homo sapiens, UniProt P50406); assay: Displacement of [3H]-LSD from human 5-HT6 receptor expressed in HEK293 cell membranes after 1 hr
[30] = target: D(1A) dopamine receptor (Homo sapiens) (UniProt P21728); assay: Displacement of [3H]-SCH23390 from human dopamine D1 receptor expressed in HEK293 cell membranes at 1 uM relative to fluphenazin
[31] = target: D(3) dopamine receptor (Homo sapiens) (UniProt P35462); assay: Displacement of [3H]-spiperone from human dopamine D3 receptor expressed in CHO cell membranes at 1 uM relative to haloperidol
Mus musculus [32] = assay: Cognition enhancing effect in albino Swiss CD-1 mouse assessed as reversal of scopolamine-induced amnesia by measuring latency time at 10 mg/kg, ip treated 30 mins prior to acquisition trial followed by scopolamine challenge immediately after acquisition trial by passive avoidance test (reference value: 39.31 +/- 4.01 secs); format: functional
Histamine H3 receptor [33] = target: T1, Histamine H3 receptor; assay: Antagonist activity at human H3 receptor expressed in HEK293 cells assessed as inhibition of RAMH-induced reduction of forskolin-stimulated cAMP accumulation after 30 mins by Ulight-based TR-FRET assay; format: functional, cell-based

T1 sequence (Q9Y5N1 whole entry): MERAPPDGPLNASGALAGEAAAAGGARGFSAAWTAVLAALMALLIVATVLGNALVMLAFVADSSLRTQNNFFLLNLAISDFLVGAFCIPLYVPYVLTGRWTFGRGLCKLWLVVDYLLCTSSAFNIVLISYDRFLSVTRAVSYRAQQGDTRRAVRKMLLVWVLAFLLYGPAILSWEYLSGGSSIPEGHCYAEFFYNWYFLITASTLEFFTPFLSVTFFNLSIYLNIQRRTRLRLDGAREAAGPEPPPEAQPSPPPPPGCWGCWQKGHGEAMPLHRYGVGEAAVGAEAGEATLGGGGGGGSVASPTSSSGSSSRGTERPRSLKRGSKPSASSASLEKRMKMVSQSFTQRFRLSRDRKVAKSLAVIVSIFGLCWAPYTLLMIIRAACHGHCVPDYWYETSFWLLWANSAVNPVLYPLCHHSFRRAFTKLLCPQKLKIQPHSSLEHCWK
Chain of Histamine H1 receptor (Cavia porcellus) (P31389 whole entry): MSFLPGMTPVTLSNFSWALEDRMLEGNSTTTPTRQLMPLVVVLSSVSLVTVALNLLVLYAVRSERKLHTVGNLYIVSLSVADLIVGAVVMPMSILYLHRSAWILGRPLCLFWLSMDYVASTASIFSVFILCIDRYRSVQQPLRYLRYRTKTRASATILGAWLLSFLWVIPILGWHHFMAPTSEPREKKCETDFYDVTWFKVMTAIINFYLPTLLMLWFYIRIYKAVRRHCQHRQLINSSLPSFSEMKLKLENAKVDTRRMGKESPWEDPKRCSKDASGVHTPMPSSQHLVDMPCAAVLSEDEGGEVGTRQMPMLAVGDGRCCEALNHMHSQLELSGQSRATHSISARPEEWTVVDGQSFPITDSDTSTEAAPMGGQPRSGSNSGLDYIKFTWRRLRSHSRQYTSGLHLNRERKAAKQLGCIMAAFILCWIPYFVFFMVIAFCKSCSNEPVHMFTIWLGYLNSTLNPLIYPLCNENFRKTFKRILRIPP
Chain of CYP3A4 (P08684 whole entry): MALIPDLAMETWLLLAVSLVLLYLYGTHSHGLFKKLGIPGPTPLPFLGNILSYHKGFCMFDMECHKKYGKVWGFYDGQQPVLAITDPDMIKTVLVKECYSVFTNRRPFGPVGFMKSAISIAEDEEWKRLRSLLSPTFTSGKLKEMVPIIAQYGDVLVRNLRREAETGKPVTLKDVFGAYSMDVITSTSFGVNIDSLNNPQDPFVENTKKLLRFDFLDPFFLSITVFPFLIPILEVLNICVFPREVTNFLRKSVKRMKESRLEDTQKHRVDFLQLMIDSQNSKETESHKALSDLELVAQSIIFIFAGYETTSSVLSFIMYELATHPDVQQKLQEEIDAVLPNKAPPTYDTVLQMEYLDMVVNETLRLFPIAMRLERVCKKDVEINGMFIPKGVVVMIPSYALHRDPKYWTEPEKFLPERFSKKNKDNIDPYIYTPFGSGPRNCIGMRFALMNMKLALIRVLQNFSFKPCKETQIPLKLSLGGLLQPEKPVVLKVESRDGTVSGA
Chain of D(3) dopamine receptor (Homo sapiens) (P35462 whole entry): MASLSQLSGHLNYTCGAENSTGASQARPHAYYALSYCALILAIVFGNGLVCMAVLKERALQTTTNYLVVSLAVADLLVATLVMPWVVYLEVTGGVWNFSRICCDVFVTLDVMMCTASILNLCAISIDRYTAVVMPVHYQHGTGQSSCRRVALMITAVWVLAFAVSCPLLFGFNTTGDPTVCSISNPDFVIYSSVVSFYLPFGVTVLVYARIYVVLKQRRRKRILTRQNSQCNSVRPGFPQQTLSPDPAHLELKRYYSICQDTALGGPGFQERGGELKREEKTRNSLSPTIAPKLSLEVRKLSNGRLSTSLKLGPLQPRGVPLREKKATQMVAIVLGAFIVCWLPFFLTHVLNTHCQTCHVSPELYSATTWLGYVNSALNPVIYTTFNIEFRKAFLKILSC
Chain of 5-hydroxytryptamine receptor 6 (P50406 whole entry): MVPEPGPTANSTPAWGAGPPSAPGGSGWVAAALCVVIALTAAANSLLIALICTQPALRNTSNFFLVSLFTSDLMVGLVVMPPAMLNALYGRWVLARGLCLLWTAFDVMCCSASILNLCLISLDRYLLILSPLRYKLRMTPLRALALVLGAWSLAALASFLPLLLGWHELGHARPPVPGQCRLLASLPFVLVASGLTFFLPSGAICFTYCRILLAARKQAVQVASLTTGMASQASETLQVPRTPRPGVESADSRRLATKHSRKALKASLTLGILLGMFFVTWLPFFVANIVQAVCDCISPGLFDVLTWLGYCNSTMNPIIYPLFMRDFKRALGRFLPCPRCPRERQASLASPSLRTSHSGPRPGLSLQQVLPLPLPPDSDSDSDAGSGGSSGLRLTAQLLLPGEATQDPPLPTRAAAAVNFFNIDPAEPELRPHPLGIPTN
Chain of 5-hydroxytryptamine receptor 7 (P34969 whole entry): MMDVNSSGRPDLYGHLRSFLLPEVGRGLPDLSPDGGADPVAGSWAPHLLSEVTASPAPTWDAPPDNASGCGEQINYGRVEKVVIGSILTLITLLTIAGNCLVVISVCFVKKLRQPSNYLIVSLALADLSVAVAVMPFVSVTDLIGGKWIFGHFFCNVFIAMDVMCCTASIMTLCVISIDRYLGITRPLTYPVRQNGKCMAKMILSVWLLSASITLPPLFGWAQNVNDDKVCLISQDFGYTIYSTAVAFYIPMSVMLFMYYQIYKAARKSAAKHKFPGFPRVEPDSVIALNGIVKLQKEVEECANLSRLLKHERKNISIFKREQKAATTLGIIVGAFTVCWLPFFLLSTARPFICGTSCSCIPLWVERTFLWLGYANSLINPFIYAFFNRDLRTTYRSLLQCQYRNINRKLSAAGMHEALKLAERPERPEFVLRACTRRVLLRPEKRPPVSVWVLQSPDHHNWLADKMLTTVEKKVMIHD
Chain of D(1A) dopamine receptor (Homo sapiens) (P21728 whole entry): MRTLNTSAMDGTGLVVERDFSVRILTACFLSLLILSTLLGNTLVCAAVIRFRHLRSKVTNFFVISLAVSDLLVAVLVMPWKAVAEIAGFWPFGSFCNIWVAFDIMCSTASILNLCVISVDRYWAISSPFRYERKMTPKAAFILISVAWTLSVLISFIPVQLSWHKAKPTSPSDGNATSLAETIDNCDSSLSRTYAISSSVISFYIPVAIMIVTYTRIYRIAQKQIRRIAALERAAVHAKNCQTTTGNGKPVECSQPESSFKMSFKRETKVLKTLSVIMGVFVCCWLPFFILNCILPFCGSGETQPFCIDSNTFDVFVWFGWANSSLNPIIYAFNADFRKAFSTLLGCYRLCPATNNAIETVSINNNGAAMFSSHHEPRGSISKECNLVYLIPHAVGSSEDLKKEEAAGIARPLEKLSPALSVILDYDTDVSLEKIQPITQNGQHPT
Chain of 5-hydroxytryptamine receptor 2A (P28223 whole entry): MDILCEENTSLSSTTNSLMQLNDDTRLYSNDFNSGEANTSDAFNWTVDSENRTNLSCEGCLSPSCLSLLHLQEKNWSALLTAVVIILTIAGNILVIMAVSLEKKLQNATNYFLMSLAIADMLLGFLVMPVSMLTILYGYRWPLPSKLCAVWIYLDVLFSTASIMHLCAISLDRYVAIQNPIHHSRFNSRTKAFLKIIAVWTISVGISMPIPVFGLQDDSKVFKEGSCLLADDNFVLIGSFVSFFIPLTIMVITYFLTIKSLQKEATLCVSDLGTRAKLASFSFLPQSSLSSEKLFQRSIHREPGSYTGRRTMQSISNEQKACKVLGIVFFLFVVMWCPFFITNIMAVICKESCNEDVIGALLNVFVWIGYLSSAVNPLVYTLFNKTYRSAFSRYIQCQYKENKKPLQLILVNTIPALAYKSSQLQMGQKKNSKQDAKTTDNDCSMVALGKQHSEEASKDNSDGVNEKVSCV
Chain of Muscarinic acetylcholine receptor M3 (Cavia porcellus) (Q8VH26 1-587): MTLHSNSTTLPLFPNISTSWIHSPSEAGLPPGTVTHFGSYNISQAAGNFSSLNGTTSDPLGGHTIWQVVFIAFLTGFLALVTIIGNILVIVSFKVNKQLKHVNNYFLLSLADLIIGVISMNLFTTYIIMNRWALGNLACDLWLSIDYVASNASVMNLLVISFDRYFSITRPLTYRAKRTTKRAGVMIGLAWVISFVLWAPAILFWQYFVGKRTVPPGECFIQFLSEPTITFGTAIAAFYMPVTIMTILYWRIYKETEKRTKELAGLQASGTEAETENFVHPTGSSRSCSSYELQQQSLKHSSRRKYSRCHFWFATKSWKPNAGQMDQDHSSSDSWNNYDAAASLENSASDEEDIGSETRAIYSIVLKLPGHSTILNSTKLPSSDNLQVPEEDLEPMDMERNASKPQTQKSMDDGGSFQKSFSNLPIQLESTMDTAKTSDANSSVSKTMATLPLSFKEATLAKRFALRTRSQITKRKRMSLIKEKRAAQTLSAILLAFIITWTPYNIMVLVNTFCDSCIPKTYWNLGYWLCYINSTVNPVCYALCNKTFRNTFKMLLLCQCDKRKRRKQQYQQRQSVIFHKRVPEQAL
Chain of Histamine H4 receptor (Homo sapiens) (Q9H3N8 whole entry): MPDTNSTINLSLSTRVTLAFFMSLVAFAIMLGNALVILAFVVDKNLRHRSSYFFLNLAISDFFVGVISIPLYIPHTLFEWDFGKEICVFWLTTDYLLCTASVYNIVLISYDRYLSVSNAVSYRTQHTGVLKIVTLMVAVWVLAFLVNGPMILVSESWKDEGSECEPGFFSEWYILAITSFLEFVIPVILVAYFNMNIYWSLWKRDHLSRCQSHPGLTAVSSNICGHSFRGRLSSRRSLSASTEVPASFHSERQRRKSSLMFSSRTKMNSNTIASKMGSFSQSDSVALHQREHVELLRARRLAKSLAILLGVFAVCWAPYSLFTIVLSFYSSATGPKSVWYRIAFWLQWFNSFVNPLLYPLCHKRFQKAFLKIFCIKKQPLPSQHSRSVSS
Chain of Histamine H1 receptor (P31389 whole entry): as the sequence (P31389 whole entry) above

CC1CCN(CCCCCOc2cccc3ccccc23)CC1
Ki (Histamine H3 receptor [1]): 43.3 nM

CC(=O)Oc1ccccc1C(=O)O [ASPIRIN]
ED50 (Mus musculus [2]): 25.2 mg/kg

CC1CCCN(CCCCCOc2ccc3ccccc3c2)C1 (stereo unspecified)
Ki (Histamine H3 receptor [1]): 42.3 nM

c1ccc2c(OCCCCCCN3CCCCCC3)cccc2c1
Ki (Histamine H3 receptor [1]): 69.3 nM | ED50 (Mus musculus [3]): 21.66 mg/kg | Time (Mus musculus [4]): 68.64 s | Time (Mus musculus [5]): 87.77 s | ED50 (Mus musculus [6]): 28.3 mg/kg | Ki (Histamine H3 receptor [7]): 69 nM | ED50 (Mus musculus [2]): 18.1 mg/kg

CC1CCN(CCCCCOc2ccc3ccccc3c2)CC1
Ki (Histamine H3 receptor [1]): 95 nM

c1ccc2cc(OCCCCCCN3CCCCC3)ccc2c1
Ki (Histamine H3 receptor [1]): 61.8 nM

c1ccc2cc(OCCCCCN3CCCCC3)ccc2c1
Ki (Histamine H3 receptor [1]): 53.5 nM

COc1cccc2c1C(=O)c1c(O)c3c(c(O)c1C2=O)C[C@@](O)(C(=O)CO)C[C@@H]3O[C@H]1C[C@H](N)[C@H](O)[C@H](C)O1 [DOXORUBICIN]
IC50 (HepG2): 550 nM | IC50 (IMR-32): 50 nM | IC50 (HEK293): 360 nM

S=C(NC1CCCCC1)N1CCC(c2cnc[nH]2)CC1 [THIOPERAMIDE]
Ki (Histamine H3 receptor [8]): 2.1 nM

Clc1ccc(CCCOCCCN2CCCCC2)cc1 [PITOLISANT]
inhibition in vivo at 1.25 mg/kg (Rattus norvegicus [9]): 87.4%

CC1CCN(CCCCCCOc2ccc3ccccc3c2)CC1
Ki (Histamine H3 receptor [1]): 92.1 nM

CC1CCCN(CCCCCCOc2cccc3ccccc23)C1 (stereo unspecified)
Ki (Histamine H3 receptor [1]): 47.6 nM

CC1CCN(CCCCCCOc2cccc3ccccc23)CC1
Ki (Histamine H3 receptor [1]): 126 nM

Nc1nnc(-c2cccc(Cl)c2Cl)c(N)n1 [LAMOTRIGINE]
TD50 at 0.25 h [10]: 30 mg/kg | selectivity ratio [11]: 4 | ED50 (Mus musculus [12]): > 40 mg/kg | ED50 (Mus musculus [13]): 7.47 mg/kg | ED50 (Mus musculus [14]): > 60 mg/kg | ED50 (Mus musculus [15]): > 60 mg/kg

CC1CCCN(CCCCCOc2cccc3ccccc23)C1 (stereo unspecified)
IC50 (HepG2): 38600 nM | Ki (Histamine H3 receptor [1]): 32.8 nM | IC50 (IMR-32): 32300 nM | inhibition at 25 µM (CYP3A4): 50% | IC50 (HEK293): > 50000 nM | Activity (Salmonella typhimurium [16]): Non-Toxic | Activity (Salmonella typhimurium [17]): Non-Toxic

CC1CCCN(CCCCCCOc2ccc3ccccc3c2)C1 (stereo unspecified)
Ki (Histamine H3 receptor [1]): 55.9 nM

c1ccc2c(OCCCCCCN3CCCCC3)cccc2c1
Ki (Histamine H3 receptor [1]): 52.9 nM

c1ccc2cc(OCCCCCCN3CCCCCC3)ccc2c1
Ki (Histamine H3 receptor [1]): 69.3 nM

CCCC(CCC)C(=O)O [VALPROIC ACID]
ED50 (Mus musculus [12]): 220 mg/kg | ED50 (Mus musculus [14]): 310 mg/kg | ED50 (Mus musculus [15]): 126 mg/kg

c1ccc2c(OCCCCCN3CCCCCC3)cccc2c1
Activity [18]: inactive | IC50 (HepG2): 25300 nM | inhibition [19]: Dose-dependent effect | Ki (Histamine H3 receptor [1]): 21.9 nM | ED50 (Mus musculus [3]): 20.47 mg/kg | inhibition [20]: 29% | Ki [21]: 2800 nM | Time (Mus musculus [5]): 91.47 s | inhibition [22]: -10% | ED50 (Rattus norvegicus [23]): 3.68 mg/kg | ED50 (Mus musculus [6]): 30.6 mg/kg | inhibition [24]: 19% | inhibition [25]: 12% | IC50 (IMR-32): 35700 nM | Kb (Histamine H1 receptor): 708 nM | ED50 (Mus musculus [2]): 20.8 mg/kg | Activity (Mus musculus [26]): inactive | inhibition at 25 µM (CYP3A4): 50% | Ki [27]: 2610 nM | Activity [28]: inactive | IC50 (HEK293): > 50000 nM | Ki [29]: 1840 nM | Activity (Salmonella typhimurium [16]): Non-Toxic | inhibition [30]: 14% | inhibition [31]: 17% | Time (Mus musculus [32]): 83.61 s | IC50 (Histamine H3 receptor [33]): 312 nM | inhibition (Histamine H3 receptor [33]): Dose-dependent effect | Activity (Salmonella typhimurium [17]): Non-Toxic

CN1CC[C@]23c4c5ccc(O)c4O[C@H]2[C@@H](O)C=C[C@H]3[C@H]1C5 [MORPHINE]
ED50 (Mus musculus [6]): 2.38 mg/kg

c1ccc2cc(OCCCCCN3CCCCCC3)ccc2c1
Ki (Histamine H3 receptor [1]): 57.3 nM
